Measurements: ChEMBL document CHEMBL1201862, “PubChem BioAssay data set” (2004)
Activity calls are given as the source filed them.

Legend:
[1] = Luminescence-based cell-based high throughput dose response assay to identify activators of the DAF-12 from the parasite S. stercoralis (ssDAF-12).; type: functional
[2] = target: T1, Oxysterols receptor LXR-beta (Homo sapiens, UniProt P55055); experiment: LXR agonists, Gal4 luciferase reporter, dose response, counter-screen for ssDAF-12 agonist project, cell-based, luminescence, HEK293, S. stercoralis campaign (AID 720737); type: functional; details: read-out: IC50 (the source's name)
T1 sequence (P55055 whole entry): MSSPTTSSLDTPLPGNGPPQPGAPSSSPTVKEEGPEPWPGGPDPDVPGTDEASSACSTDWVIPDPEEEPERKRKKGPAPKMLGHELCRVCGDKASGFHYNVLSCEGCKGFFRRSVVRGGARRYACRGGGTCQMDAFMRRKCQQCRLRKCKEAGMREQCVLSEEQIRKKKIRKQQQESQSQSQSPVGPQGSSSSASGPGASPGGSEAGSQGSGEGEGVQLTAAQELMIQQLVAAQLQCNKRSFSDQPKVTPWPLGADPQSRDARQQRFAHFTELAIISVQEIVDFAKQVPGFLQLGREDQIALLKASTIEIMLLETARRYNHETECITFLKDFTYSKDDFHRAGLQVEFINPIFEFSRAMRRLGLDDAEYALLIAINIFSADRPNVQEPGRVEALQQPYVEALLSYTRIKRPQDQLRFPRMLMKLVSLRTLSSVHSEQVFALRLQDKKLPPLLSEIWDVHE

[3] = cytotoxicity in MITF-independent A375 cells – cell-based, CellTiter-Glo luminescence, dry powder, set 4, counter-screen for MITF inhibitor project, dose response (AID 624364); type: functional; details: A-375;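 also: A375 melanoma cells are MITF independent so this is a counter screen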
[4] = viability loss in MITF-independent A375 cells – cell-based, CellTiter-Glo luminescence, dry powder, set 2, counter-screen for MITF inhibitor project, dose response (AID 624489); type: functional; details: A-375;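 also: actives are compounds lowering A375 viability meaning general cytotoxicity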
[5] = potency of ADAM10 substrate cleavage blockers – biochemical, QFRET, dose response (AID 743254);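 also: ADAM10 enzyme with the DM2 quenched FRET peptide as substrate; EDANS fluorescence gain as the protease cuts the substrate; inhibitor potency against ADAM10 proteolytic activity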
[6] = microbe, parasite or virus in culture; type: functional; details: Mycobacterium tuberculosis
[7] = Luminescence Cell-Based Dose Retest to Confirm Inhibitors of Cancer Stem Cells. [Related pubchem assays (depositor defined):AID2717, AID2721]; type: functional; details: Homo sapiens
cells [8] = type: functional, cell-based
cells [9] = type: functional, cell-based; remark: listed apart in the source
[10] = target: T2, Trace amine-associated receptor 1 (Homo sapiens, UniProt Q96RJ0); experiment: Fluorescence-based cell-based high throughput dose response assay to identify agonists of the human trace amine associated receptor 1 (TAAR1).; type: functional
T2 sequence (Q96RJ0 whole entry): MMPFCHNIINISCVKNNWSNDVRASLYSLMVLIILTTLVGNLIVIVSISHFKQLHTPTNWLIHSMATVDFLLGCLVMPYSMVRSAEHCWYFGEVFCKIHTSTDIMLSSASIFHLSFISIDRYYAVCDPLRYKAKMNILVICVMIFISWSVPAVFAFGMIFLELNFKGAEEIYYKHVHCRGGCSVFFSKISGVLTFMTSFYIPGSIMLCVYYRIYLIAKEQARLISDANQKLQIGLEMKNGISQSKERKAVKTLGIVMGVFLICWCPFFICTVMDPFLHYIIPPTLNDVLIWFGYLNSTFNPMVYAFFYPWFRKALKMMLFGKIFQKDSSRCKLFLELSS

[11] = target: T2, Trace amine-associated receptor 1; experiment: Counterscreen for agonists of the human trace amine associated receptor 1 (hTAAR1): Fluorescence-based cell-based high throughput dose response assay to identify hTAAR1 agonist that also desensitize TAAR1 receptor response.; type: functional
[12] = target: Matrix metalloproteinase-14 (Homo sapiens, UniProt P50281); experiment: Dose Response confirmation of uHTS hits for a small molecule inhibitors of MT1-MMP activation in a fluorescence assay set 2.; type: functional
[13] = target: Disintegrin and metalloproteinase domain-containing protein 17 (Homo sapiens, UniProt P78536); experiment: inhibition of ADAM17 substrate cleavage – biochemical, quenched FRET substrate, counter-screen for ADAM10 exosite inhibitor project, dose response (AID 743253)
[14] = target: 5-hydroxytryptamine receptor 1A (Homo sapiens, UniProt P08908); type: functional
[15] = NIH3T3 cell viability loss – ATP luminescence, mouse fibroblasts, counter-screen, dose response (AID 2010); type: functional, cell-based;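 also: cells exposed to compound for about 90 hours before reading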
[16] = Luminescence-based dose response cell-based high throughput screening assay for cytotoxic compounds using the IEC-6 intestinal epithelial cell line. [Related pubchem assays: 1858 (Summary AID.), 1825 (Counterscreen.), 1907 (Confirmation screen.)]; type: functional
cells [17] = experiment: cells
[18] = Trypanosoma cruzi growth suppression in host cells – NIH3T3 host cells, beta-gal luminescence, confirmation (AID 2044); type: functional, cell-based;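 also: intracellular parasites grown in NIH/3T3 mouse fibroblasts as host cells; luminescent beta-galactosidase reporter signal from transgenic T. cruzi replicating inside host cells; inhibitors lower the luminescence signal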
[19] = HEK-293T viability loss after treatment – luminescence, T-cell screen hits, cytotoxicity control for TCR NF-kB inhibitor project, dose response (AID 489026); type: functional, cell-based;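 also: cells exposed to compound about 14 hours before the viability readout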
Troponin, cardiac muscle = Troponin, cardiac muscle (Homo sapiens, UniProt P19429+P45379+P63316); experiment: Fluorescence-based biochemical high throughput dose response assay for activators of the calcium sensitivity of cardiac Regulated Thin Filaments (RTF). [Related pubchem assays (depositor defined):AID493008, AID493018, AID504382, AID504383]; type: protein-complex assay
[20] = target: T3, Tyrosine-protein phosphatase non-receptor type 7 (Homo sapiens, UniProt P35236); experiment: HePTP tyrosine phosphatase activity blockers – biochemical, absorbance, leukemia target, primary screen (AID 521); type: functional
T3 sequence (P35236 whole entry): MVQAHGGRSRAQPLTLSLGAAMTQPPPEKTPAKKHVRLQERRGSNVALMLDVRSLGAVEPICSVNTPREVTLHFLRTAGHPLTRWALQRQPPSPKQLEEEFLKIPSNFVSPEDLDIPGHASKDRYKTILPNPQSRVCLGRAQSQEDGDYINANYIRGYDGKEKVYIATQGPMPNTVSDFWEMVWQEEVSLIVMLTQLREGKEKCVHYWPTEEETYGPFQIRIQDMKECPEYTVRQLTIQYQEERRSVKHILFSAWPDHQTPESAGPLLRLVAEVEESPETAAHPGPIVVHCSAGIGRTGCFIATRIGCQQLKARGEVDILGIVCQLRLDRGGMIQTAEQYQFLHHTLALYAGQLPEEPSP

Transthyretin = Transthyretin (Homo sapiens, UniProt P02766); experiment: Luminescence-based cell-based high throughput dose response assay to identify activators of Transthyretin (TTR) transcription.; type: functional
[21] = OVCAR-3 cell viability loss – plate reader, dry powder samples, PAX8 inhibitor project, dose response (AID 743044); type: functional, cell-based
[22] = OVCAR8 cell viability loss – plate reader, dry powder samples, PAX8 project, dose response (AID 743197); type: functional, cell-based; details: OVCAR-8
Paired box protein Pax-8 = Paired box protein Pax-8 (Homo sapiens, UniProt Q06710); experiment: PAX8 transcriptional activity inhibition in RMG-I – RMG-I cells, luciferase, cherry-pick, dose response (AID 687027); type: functional, cell-based;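 also: luciferase reporter driven by Pax8 target thyroperoxidase promoter measured by SteadyGlo luminescence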
[23] = IGROV1 cell killing – plate reader, dry powder samples, PAX8 inhibitor project, dose response (AID 743043); type: functional, cell-based; details: IGROV-1
[24] = general cell-killing toxicity readout – plate reader, dry powder samples, cytotoxicity control for PAX8 inhibitor project, dose response (AID 743021); type: functional, cell-based
[25] = target: Eukaryotic translation initiation factor 4E (Mus musculus, UniProt P63073); experiment: blockers of eIF4G binding by eIF4E – biochemical, TR-FRET, dose response (AID 855); type: functional;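 also: potency for disrupting eIF4E binding to eIF4GI seen as loss of FRET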
Kallikrein-7 = Kallikrein-7 (Homo sapiens, UniProt P49862); experiment: Fluorescence Intensity-based biochemical primary high throughput dose response assay to identify activators of kallikrein-7 (K7) zymogen.
Chain of Kallikrein-7 (P49862 whole entry): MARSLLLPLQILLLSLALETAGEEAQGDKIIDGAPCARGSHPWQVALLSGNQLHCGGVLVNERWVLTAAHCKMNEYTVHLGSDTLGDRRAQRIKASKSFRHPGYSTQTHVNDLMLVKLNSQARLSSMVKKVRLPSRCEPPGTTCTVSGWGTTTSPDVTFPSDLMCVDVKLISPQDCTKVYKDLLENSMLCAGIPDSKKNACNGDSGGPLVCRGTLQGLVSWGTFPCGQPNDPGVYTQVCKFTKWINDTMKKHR

Chain of Paired box protein Pax-8 (Q06710 whole entry): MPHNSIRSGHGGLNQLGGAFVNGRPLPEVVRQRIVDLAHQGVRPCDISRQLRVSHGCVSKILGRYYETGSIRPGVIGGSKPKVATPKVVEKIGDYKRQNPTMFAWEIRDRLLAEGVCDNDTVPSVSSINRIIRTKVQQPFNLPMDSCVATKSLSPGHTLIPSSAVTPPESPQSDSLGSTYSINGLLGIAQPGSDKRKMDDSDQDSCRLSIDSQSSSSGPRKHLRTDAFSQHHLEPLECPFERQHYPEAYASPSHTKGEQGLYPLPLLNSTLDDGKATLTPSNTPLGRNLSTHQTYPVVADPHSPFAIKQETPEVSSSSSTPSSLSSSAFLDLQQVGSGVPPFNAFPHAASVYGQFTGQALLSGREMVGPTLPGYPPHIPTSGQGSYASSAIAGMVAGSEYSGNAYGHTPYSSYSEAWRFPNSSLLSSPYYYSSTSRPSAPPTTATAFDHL
Chain of 5-hydroxytryptamine receptor 1A (P08908 whole entry): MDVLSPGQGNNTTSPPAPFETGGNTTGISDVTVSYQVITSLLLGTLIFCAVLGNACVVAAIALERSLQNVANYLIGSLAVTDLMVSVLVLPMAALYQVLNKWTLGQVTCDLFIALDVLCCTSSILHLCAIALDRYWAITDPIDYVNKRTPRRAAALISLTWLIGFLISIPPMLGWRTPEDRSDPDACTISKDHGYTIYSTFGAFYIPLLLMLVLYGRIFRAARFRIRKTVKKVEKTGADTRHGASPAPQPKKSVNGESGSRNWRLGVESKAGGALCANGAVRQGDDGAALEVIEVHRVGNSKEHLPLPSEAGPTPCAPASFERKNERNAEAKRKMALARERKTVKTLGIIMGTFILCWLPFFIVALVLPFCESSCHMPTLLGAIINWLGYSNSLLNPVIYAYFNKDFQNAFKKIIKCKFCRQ
Chain of Disintegrin and metalloproteinase domain-containing protein 17 (P78536 whole entry, the tested form may be a part): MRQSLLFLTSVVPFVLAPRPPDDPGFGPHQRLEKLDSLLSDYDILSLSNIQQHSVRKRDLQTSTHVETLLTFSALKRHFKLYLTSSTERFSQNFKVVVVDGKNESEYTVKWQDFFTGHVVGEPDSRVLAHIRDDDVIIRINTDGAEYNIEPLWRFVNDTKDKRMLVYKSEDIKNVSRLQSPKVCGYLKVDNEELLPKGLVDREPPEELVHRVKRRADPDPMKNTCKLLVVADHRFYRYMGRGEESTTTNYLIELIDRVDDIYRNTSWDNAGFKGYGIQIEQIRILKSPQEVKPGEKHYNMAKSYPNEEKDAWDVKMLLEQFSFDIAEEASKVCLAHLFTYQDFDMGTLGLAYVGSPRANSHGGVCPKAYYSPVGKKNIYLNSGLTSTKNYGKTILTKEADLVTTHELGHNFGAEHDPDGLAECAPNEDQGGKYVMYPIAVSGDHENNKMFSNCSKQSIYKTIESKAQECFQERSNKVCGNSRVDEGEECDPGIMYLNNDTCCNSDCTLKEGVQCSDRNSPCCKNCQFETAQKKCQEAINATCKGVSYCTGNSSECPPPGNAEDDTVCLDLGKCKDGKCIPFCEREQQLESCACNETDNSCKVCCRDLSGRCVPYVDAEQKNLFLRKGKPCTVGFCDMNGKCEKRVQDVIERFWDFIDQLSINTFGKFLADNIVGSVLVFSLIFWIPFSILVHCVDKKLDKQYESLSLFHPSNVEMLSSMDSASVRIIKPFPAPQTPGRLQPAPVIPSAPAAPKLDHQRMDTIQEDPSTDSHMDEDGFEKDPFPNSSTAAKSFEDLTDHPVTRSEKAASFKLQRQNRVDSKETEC
Chain of Eukaryotic translation initiation factor 4E (P63073 whole entry): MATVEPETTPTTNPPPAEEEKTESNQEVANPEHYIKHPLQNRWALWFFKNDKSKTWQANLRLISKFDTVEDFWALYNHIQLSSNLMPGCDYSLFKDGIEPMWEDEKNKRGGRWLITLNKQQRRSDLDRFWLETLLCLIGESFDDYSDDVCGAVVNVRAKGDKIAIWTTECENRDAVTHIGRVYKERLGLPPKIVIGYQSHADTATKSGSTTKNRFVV

Cc1ccc(/C=N/Nc2nnc(Cl)c3ccccc23)cc1
IC50 [1]: > 67.5 µM (inactive)
EC50 [2]: > 67.5 µM (inactive)

CCN(CC)CCCCNC1=C(Nc2ccccc2)C(=O)c2ccccc2C1=O
AC50 [3]: > 70 µM (inactive)
AC50 [4]: > 70 µM (inactive)

O=[N+]([O-])c1cccnc1N1CCC(c2cc(-c3cccc(C(F)(F)F)c3)[nH]n2)CC1
IC50 [5]: 12.7 µM (inactive)
CC50 [6]: 28.7 µM (active)
AC50 [7]: 2.87 µM (active)

O=C(NC1=C(N2CCCCC2)C(=O)c2ccccc2C1=O)c1ccc(Br)cc1
AC50 [3]: > 70 µM (inactive)
AC50 [4]: 50.3 µM (active)

c1ccc(Cc2cnc(N3CCNCC3)nc2)cc1
IC50 (cells [8]): > 29.9 µM (inactive)
EC50 (cells [9]): > 29.9 µM (inactive)
EC50 [10]: 7.24 µM (active)
IC50 [11]: > 29.9 µM (inactive)

Cc1c(C(=O)O)c(O)cc2c1C(=O)c1c(O)c([C@@H]3O[C@H](CO)[C@@H](O)[C@H](O)[C@H]3O)c(O)c(O)c1C2=O [CARMINIC ACID]
IC50 [12]: 19.5 µM (active)

CCCCC[C@@H](C)N1C[C@@H](COCc2ccccc2)Oc2cc(N3CC[C@H](O)C3)ccc2S1(=O)=O
IC50 [13]: > 69.5 µM (inactive)
IC50 [5]: 11.3 µM (inactive)

CC1CN(c2nnnn2-c2ccccc2)CC(C)O1 (stereo not given)
EC50 [14]: > 50 µM (not active)

CSc1nc2ccc(NC(=O)C3CCCO3)cc2s1 (stereo not given)
EC50 [14]: > 50 µM (not active)

CCC(C)C(=O)N[C@@H](c1ccccc1)[C@@H](O)C(=O)O[C@H]1C[C@@]2(O)[C@@H](OC(=O)c3ccccc3)C3[C@](C)(C(=O)[C@H](OC(C)=O)C(=C1C)C2(C)C)[C@@H](O)C[C@H]1OC[C@@]31OC(C)=O (stereo not given in full)
EC50 [15]: 6.26 µM (active)
IC50 [16]: 0.244 µM (active)
EC50 (cells [17]): 0.025 µM (active)
EC50 [18]: < 0.1 µM (active)
IC50 [19]: > 80 µM (inactive)

CNC(=O)N(O)C1N(C)C(=O)N(CC(=O)OC)C1(C)C (stereo not given)
EC50 (Troponin, cardiac muscle): > 71.5 µM (inactive)
IC50 [20]: > 100 µM (not active)

COc1ccc(C(=O)NC2CCCc3c2cnn3-c2cc(F)cc(F)c2)c(OC)c1OC (stereo not given)
EC50 (Transthyretin): > 167 µM (inactive)

C[C@@H]1CN([C@H](C)CO)C(=O)c2cc(NC(=O)Nc3ccc4c(c3)OCO4)ccc2O[C@@H](C)CCCCO[C@H]1CN(C)Cc1ccc(C(F)(F)F)cc1
AC50 [21]: 11.6 µM (active)
AC50 [22]: > 60 µM (inactive)
AC50 (Paired box protein Pax-8): 8.35 µM (active)
AC50 [23]: 12.8 µM (active)

O=[N+]([O-])c1cccnc1N1CCC(c2cc(-c3cccc(C(F)(F)F)c3)n[nH]2)CC1
IC50 [13]: > 69.5 µM (inactive)

COc1ccccc1CCNS(=O)(=O)CCNC(=O)c1ccc2c(c1)OCO2
IC50 (cells [8]): > 29.9 µM (inactive)
EC50 (cells [9]): > 29.9 µM (inactive)
EC50 [10]: 4.48 µM (active)
IC50 [11]: 6.62 µM (active)

O=C(C[C@@H]1CC[C@H]2[C@@H](COC[C@@H](O)CN2Cc2cccc(F)c2)O1)NCC1CCCCC1
AC50 [24]: 61.8 µM (active)
AC50 (Paired box protein Pax-8): 34 µM (active)

Cc1c(C(=O)N2CCc3ccccc32)cnn1C
EC50 (Transthyretin): > 167 µM (inactive)

COc1cc(-c2cc(=O)c3c(O)c(OC)c(OC)cc3o2)cc(OC)c1O
IC50 [12]: > 80 µM (inactive)

NC(=O)c1c(NC(=O)CSc2nnc(-c3ccco3)n2-c2ccccc2)sc2c1CCC2
IC50 [25]: > 64 µM (inactive)
IC50 [20]: 10.6 µM (active)

COc1ccc(OC)c(/C=C/C(=O)N(C)CC(=O)Nc2ccc(N3CCOCC3)cc2)c1
EC50 (Kallikrein-7): > 69.5 µM (inactive)

C[C@@H]1CN([C@H](C)CO)C(=O)c2cc(NS(=O)(=O)c3ccc(Cl)cc3)ccc2O[C@@H](C)CCCCO[C@H]1CN(C)S(=O)(=O)c1ccc(F)cc1
AC50 [22]: > 70 µM (inactive)
AC50 (Paired box protein Pax-8): 2.46 µM (active)
AC50 [23]: 43.9 µM (active)
